Source: ChEMBL document CHEMBL3988442, “University of Dundee, Small-Polar-MMV Screening Library” (2021)
Where “and” joins values, the source holds several entries; their conditions need not be identical. Identical values can stand only once.

Assays:
Shiga toxin 2 = target: T1, Shiga toxin 2 (Escherichia coli O157:H7, UniProt P09385+P09386); experiment: E. coli 0.157:H7 Shiga Toxin SOP - stx2 screening assay; format: functional
T1 sequence (P09385 whole entry): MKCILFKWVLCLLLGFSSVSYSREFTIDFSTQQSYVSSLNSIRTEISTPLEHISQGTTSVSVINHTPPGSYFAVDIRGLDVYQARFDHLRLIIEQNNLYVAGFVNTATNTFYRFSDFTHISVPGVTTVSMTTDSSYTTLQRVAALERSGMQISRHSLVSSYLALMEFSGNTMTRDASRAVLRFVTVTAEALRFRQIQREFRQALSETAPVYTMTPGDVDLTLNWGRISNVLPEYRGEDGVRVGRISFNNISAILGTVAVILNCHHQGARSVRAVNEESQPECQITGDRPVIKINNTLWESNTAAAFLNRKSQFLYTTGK
T1 sequence (P09386 whole entry): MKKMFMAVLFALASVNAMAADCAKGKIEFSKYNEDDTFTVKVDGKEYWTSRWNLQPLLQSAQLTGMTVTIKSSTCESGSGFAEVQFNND

[1] = In vitro enzyme assay to detect hydrolysis of chlorophenol red-beta-D-[…] directly proportional to the number of Toxoplasma stably expressing beta-galactosidase; format: functional, organism-based, Toxoplasma gondii; details: Toxoplasma gondii
Proteasome subunit beta = target: T2, Proteasome subunit beta (Trypanosoma cruzi, UniProt O96673); experiment: Trypanosoma cruzi proteasome chymotrypsin-like activity (TcProtChymo) assay.; format: functional
T2 sequence (O96673 whole entry): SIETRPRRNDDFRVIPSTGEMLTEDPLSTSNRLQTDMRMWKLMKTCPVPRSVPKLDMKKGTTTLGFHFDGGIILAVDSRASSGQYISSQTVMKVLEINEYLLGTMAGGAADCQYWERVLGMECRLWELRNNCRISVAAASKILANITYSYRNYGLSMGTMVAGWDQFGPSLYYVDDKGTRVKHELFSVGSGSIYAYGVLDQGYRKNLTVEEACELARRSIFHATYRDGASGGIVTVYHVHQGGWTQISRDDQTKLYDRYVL

[2] = microbe, parasite or virus in culture; details: Mycobacterium tuberculosis, 72 h, read-out: pIC50 (converted)
[3] = Trypanosoma cruzi proteasome luciferase counter-screen; format: functional, N/A
[4] = To identify inhibition of the IFN signalling (Jak-Stat) pathway via expression of an eGFP reporter gene under the control of an IFN-stimulated response element (ISRE) containing MxA promoter.; format: functional, Homo sapiens
[5] = microbe, parasite or virus in culture; details: Mycobacterium tuberculosis, 96 h, read-out: pIC50 (converted)
[6] = target: T3, Tyrosyl-tRNA synthetase, putative (Trypanosoma cruzi (strain CL Brener), UniProt Q4DSP6); experiment: Trypanosoma cruzi tyrosyl tRNA synthetase (TcYRS) _High Tyrosine SOP; format: functional
T3 sequence (Q4DSP6 whole entry): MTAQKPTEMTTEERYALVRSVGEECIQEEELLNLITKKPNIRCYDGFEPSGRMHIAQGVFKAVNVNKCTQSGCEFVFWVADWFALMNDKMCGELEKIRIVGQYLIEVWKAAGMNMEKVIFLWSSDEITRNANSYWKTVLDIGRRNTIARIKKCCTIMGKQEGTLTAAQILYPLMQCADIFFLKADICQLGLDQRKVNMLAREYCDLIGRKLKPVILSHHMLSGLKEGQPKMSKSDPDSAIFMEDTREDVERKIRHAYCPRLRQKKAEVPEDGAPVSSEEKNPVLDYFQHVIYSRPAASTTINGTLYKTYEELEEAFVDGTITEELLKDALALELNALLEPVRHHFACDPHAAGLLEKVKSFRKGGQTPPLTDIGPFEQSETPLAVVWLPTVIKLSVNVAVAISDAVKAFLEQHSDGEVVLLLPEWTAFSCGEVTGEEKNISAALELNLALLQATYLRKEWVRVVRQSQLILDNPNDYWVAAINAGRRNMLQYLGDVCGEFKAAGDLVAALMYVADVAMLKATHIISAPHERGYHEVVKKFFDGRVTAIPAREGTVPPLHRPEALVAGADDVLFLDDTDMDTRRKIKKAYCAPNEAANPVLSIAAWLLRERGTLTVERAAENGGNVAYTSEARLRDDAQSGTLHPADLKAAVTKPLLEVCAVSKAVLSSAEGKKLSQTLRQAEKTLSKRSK

[7] = target: T3, Tyrosyl-tRNA synthetase, putative; experiment: Trypanosoma cruzi tyrosyl tRNA synthetase (TcYRS) SOP; format: functional
Plasmodium falciparum = experiment: Calibr Malaria Delayed Death Assay SOP; format: functional, organism-based
Histidine--tRNA ligase [8] = target: T4, Histidine--tRNA ligase (Leishmania infantum, UniProt A4I591); experiment: Leishmania infantum Histidine tRNA synthetase (LdHisRS); format: functional
T4 sequence (A4I591 whole entry): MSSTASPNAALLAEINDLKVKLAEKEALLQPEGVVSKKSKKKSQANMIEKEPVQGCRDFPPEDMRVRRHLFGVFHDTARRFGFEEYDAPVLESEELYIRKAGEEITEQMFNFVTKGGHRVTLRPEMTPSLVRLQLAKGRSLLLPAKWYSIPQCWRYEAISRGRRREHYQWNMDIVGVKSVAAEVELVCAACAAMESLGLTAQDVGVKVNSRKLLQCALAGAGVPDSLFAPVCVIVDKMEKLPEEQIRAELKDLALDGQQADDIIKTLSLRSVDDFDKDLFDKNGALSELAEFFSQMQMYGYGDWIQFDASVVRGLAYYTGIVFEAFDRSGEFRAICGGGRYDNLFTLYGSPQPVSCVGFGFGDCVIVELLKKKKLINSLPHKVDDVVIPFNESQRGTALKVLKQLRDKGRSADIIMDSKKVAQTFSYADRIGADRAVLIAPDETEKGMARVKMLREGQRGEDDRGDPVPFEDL

Histidine--tRNA ligase [9] = target: T5, Histidine--tRNA ligase (Trypanosoma cruzi (strain CL Brener), UniProt Q4DA54); experiment: Trypanosoma cruzi histidyl tRNA synthetase (Tc-HisRS); format: functional
T5 sequence (Q4DA54 whole entry): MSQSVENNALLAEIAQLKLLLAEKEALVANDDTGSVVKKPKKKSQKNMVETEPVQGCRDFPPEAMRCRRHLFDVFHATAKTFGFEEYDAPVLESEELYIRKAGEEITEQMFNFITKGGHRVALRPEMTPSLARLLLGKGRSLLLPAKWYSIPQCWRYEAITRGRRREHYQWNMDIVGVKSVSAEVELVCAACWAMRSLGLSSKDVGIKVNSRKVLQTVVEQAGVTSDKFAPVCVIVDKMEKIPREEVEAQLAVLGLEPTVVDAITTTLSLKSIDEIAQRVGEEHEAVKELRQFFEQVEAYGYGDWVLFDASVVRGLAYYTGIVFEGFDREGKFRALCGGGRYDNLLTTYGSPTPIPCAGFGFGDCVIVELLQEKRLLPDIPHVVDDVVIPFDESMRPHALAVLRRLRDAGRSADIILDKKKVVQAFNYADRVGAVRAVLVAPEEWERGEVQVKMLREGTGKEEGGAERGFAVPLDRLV

[10] = target: Chromo domain-containing protein 1 (Saccharomyces cerevisiae (strain ATCC 204508 / S288c) (Baker's yeast), UniProt P32657); experiment: ScCHD-1 Enzyme Inhibition Assay; format: functional
Chain of Chromo domain-containing protein 1 (P32657 whole entry, the tested form may be a part): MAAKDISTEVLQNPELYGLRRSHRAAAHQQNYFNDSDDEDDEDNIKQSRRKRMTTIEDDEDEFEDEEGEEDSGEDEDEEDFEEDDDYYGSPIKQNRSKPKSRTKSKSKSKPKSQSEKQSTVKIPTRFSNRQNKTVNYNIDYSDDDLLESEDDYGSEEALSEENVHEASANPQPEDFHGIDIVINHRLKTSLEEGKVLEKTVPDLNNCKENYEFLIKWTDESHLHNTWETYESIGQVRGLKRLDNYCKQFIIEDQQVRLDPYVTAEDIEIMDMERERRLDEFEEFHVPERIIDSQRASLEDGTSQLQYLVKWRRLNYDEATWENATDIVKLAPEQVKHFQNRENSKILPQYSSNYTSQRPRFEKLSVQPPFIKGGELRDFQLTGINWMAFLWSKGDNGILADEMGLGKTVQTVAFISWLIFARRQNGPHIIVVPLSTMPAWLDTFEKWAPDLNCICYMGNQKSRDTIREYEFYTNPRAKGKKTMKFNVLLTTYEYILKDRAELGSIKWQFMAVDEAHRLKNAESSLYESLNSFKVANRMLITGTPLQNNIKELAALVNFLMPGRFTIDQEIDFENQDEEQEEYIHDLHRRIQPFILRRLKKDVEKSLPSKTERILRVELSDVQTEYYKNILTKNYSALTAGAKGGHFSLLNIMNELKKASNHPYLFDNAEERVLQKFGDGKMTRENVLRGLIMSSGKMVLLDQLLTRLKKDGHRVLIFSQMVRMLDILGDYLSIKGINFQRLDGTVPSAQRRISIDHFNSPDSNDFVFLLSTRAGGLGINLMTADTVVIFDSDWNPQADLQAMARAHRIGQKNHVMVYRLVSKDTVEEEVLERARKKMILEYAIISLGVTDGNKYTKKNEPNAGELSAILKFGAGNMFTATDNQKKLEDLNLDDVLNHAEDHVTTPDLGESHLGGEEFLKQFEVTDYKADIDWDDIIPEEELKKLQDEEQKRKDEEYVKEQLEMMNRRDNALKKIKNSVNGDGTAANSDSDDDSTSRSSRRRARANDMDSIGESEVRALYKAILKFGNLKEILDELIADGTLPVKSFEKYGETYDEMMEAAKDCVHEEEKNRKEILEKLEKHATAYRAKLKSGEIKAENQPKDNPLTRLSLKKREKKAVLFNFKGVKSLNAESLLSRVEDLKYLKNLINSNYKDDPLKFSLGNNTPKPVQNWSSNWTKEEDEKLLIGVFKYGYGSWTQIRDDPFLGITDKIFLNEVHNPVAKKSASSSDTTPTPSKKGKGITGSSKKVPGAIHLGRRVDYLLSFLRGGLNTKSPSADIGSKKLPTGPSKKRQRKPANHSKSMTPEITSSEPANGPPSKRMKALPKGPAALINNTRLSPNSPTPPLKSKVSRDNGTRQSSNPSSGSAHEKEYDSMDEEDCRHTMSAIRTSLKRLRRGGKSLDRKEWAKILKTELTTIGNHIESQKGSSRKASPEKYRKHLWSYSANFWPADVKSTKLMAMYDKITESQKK

Leishmania donovani = experiment: Leishmania intramacrophage assay; format: functional, organism-based; details: Leishmania donovani

SMILES | IC50 (Shiga toxin 2) | IC50 [6] | IC50 [7] | further results
Cn1cc(C(=O)N2CCC(Cc3nccs3)CC2)cn1 | > 100 µM | – | – | –
CCOC(=O)c1sc2ccsc2c1CN | > 100 µM | – | – | –
COc1c(CNC(c2ccc(F)cc2)C(C)(C)C)c(C)nn1C (centres undefined) | > 100 µM | – | – | –
Cc1cc(-c2cnn(CCNC(=O)C3CC3)c2C2CC2)on1 | > 100 µM | – | – | –
Cc1noc(NC(=O)c2ccc(OC(F)(F)F)cc2)n1 | > 100 µM | – | – | IC50 [1]: 4.96 µM; IC50 (Proteasome subunit beta): 4.36 µM and 4.71 µM; IC50 [2]: 20 µM; pIC50 [3]: 5.158 and 4.98; pIC50 [4]: 5.092; IC50 [5]: 36.6 µM
O=C(C1=CCCC1)N1C[C@H](Oc2cccnc2)[C@H]2OCCC[C@H]21 | – | > 100 µM | > 100 µM | –
CC(C)NC(=O)N1CCN(CC2CC2)CC2(CC(=O)N(C)C2)C1 (centres undefined) | – | > 100 µM | > 100 µM | –
O=C(NCc1ccccc1)N1CCC2(CC(=O)N(c3ccsc3)C2)C1 (centres undefined) | – | > 100 µM | > 100 µM | –
N#Cc1ccc(NCCNc2ccc(C(F)(F)F)cn2)nc1 | > 100 µM | – | – | IC50 [1]: 22.7 µM; pIC50 [4]: 5.715
COc1ncc(C2(O)CCN(Cc3c(F)cccc3F)CC2)c(OC)n1 | > 100 µM | – | – | –
CC(C)(C)NC(=O)NC(=O)CNC(C)(C)c1ccc2c(c1)OCCO2 | > 100 µM | – | – | –
COc1ccccc1CC(=O)N1CC[C@@]2(CCCO2)[C@@H](OC)C1 | > 100 µM | – | – | –
CCOc1ccnc(N2CCN(C(=O)c3cccc(C#N)c3)CC2)n1 | > 100 µM | – | – | –
CN1CCc2nc(C3CCN(C(=O)CCC4CCCC4)CC3)ncc2C1 | – | 45.5 µM and 43.7 µM | 46.4 µM and 43.1 µM | IC50 (Proteasome subunit beta): > 100 µM; pIC50 [3]: < 4
O=C(O)C(F)(F)F.c1cnc(N2CCC3(CC2)CN(CC2CC2)c2ccccc23)nc1 | – | 19.4 µM and 17.9 µM | 16.3 µM and 16.2 µM | pIC50 (Plasmodium falciparum): 6.09; IC50 (Plasmodium falciparum; Plasmodium falciparum): 1.26 µM; IC50 (Histidine--tRNA ligase [8]): 9.51 µM and 9.98 µM; IC50 (Histidine--tRNA ligase [9]): 32.3 µM and 19.9 µM
O=S(=O)(c1ccccc1)N1CCCCC1c1cc[nH]n1 (centres undefined) | > 100 µM | – | – | –
O=S(=O)(CCN1CCOC(Cn2cccn2)C1)C(F)(F)F (centres undefined) | 15 µM and 14 µM | – | – | IC50 [10]: > 29.5 µM; IC50 [2]: 28.9 µM; IC50 [5]: > 50.1 µM
Cc1cc(C)n(C2CN(CC(=O)N(C)Cc3ccc(C)o3)C2)n1 | – | 79.3 µM and 74.7 µM | 75.8 µM and 72.1 µM | –
CN(Cc1ccsc1)C(=O)CS(=O)(=O)Cc1ccc(Cl)c(Cl)c1 | > 100 µM | – | – | –
Cc1nccn1-c1cccc(C2CCCN2S(=O)(=O)c2cn(C)cn2)n1 (centres undefined) | > 100 µM | – | – | –
O=C(NC1CC1)c1ccc2ccc(N3CCN(CC4CC4)CC3)n2c1 | – | 41.1 µM and > 100 µM | > 100 µM | IC50 (Leishmania donovani): > 50.1 µM
Cc1noc(NC(=O)c2ccc(Br)cc2)n1 | > 100 µM | – | – | IC50 [1]: 9.76 µM; pIC50 [4]: 4.648 and 4.809
